# Measured values reported in PMC7425896, “Polypeptides derived from α-Synuclein binding partners to prevent α-Synuclein fibrils interaction with and take-up by cells” (PLoS ONE, 2020).
# No end group written: not given here.
# Legend:
# [1] = Secondary structure content by far-UV circular dichroism; format: physicochemical; conditions: far-UV CD, 20°C, deconvoluted with Dichroweb
# Procedure: Far-UV CD spectra were recorded at 20°C using a JASCO J-810 dichrograph equipped with a thermostated cell holder using a 0.01-cm path length quartz cuvette. Each spectrum was the average of 10 acquisitions recorded in the 260–195 nm range with 0.5-nm steps, a bandwidth of 2 nm, and at a speed of 50 nm/min. All spectra were buffer corrected. The spectra were deconvoluted with the Dichroweb software.
# αSyn fibrils [2] = molecular target: T1, αSyn fibrils (Homo sapiens, UniProt P37840); assay: Binding of peptides and Surfen to preformed αSyn fibrils, sedimentation and reversed phase chromatography; conditions: αSyn fibrils 100 μM; for Bound peptides / Bound peptides (%) / binding to αSyn fibrils (in words): ligand 200 μM, 1h RT, PBS; for Bound peptides / Bound peptides (%): pellet 20,000g, C18 reversed phase chromatography, absorbance 215 nm (peptides) or 260 nm (Surfen); for binding to αSyn fibrils (in words) / Kd: sedimentation, reversed phase chromatography; for Kd: peptide 0–200 μM
# T1 construct: made in house
# Procedure: Hsc70-derived peptides, the […] peptide or the Surfen molecule (0 or 200 μM) were incubated with or without αSyn fibrils (100 μM) for 1h at RT in PBS. The samples were centrifuged for 30 min in a […] tabletop centrifuge (Eppendorf) at 20,000g and 20°C. The pellets were first washed by 100 μL of 0.1% TFA and then dissolved for 30 min in 30 μL of pure TFA. After TFA evaporation, the samples were resuspended in 0.1% TFA and stored at -20°C. The composition of each sample was assessed by phase reverse chromatography on a C18 column (Jupiter C18 300A from Phenomenex, Torrance, CA, USA). The solvant composition was 0.1% TFA for solvent A and 80% acetonitrile, 0.09% TFA for solvent B, and the flow was set at 200 μl/min. The column was equilibrated in 5% B. The peptides were eluted by a gradient from 5% to 80% of solvent B. The amount of αSyn-associated ligand present in each sample was determined by comparing their respective absorbance at 215 nm (peptides) or 260 nm (Surfen) to the absorbance of a known amount of the same ligand. For KD measurements the same experiment was performed using a range of peptide concentrations (0-200 μM).
# αSyn fibrils [3] = molecular target: T1, αSyn fibrils; assay: Filter trap (cellulose acetate filter retardation) assay of ATTO488-labelled Hsc70 and subdomains binding to αSyn fibrils; conditions: labelled:unlabelled 1:50, 0–2 μM (domains 0–5 μM), αSyn fibrils 1 μM, PBS, 1h RT, fluorescence, filtered in triplicate, 2 to 3 independent experiments, read-out: KD of ATTO488-labelled polypeptides for αSyn fibrils
# Procedure: The KD for Hsc70, SBD, SBDβ and SBD-lid interaction with αSyn fibrils were measured as follow. Hsc70 and its subdomains were first labeled by addition of the aminoreactive fluorescent dye ATTO488 (Invitrogen, Carlsbad, CA, USA) using a protein:dye molar ratio of 1:5. The reaction was stopped by adding Tris-HCl pH 7.5 (20 mM final concentration). The unreacted fluorophore was removed by NAP5 desalting column. Under these conditions the majority of primary amines unaffected by the labelling as 0.05 to 0.08 dye molecules were incorporated on average within Hsc70 or its subdomains, as assessed by absorbance spectroscopy. Binding of ATTO488-labeled polypeptides to fibrillar αSyn was then followed by a filter retardation assay where fibrils and associated proteins are retained on a membrane. The different ATTO488-labeled polypeptides were diluted with their unlabeled counterpart (labeled:unlabeled polypeptides ratio of 1:50) at different final concentrations (0–2 μM) and incubated with or without αSyn fibrils (1 μM) in PBS for 1h at RT. 200 μl of each sample were filtered in triplicate through cellulose acetate membranes (0.2 μm pore size, Millipore Corp., Bedford, MA) using a 48-slot slot-blot filtration apparatus (GE Healthcare). The amount of labeled polypeptide retained on the membrane was visualized using a ChemiDocTM MP (BioRad). Images were processed and quantified using Image Lab.
# monomeric αSyn = assay: Monomeric αSyn assembly into fibrils monitored by Thioflavin T binding; format: biochemical, human; conditions: soluble αSyn 50 μM, peptide 50 μM (equimolar), PBS, 37°C, 600 rpm, 4 independent experiments
# Procedure: αSyn (50 μM monomer concentration) was incubated in the absence or in the presence of peptides (50 μM) in PBS at 37°C under continuous shaking in an Eppendorf Thermomixer set at 600 rpm. Aliquots (10 μL) were withdrawn at different time intervals from the assembly reaction and mixed to a Thioflavin T solution (10 μM; 400 μL). Thioflavin T fluorescence was recorded with a Cary Eclipse spectrofluorimeter (Varian Medical Systems Inc.) using excitation and emission wavelengths set at 440 and 480 nm, respectively. The nature of the fibrils obtained at the end of the aggregation reaction was assessed by electron microscopy as described above. The proportion of αSyn assembled into fibrils was assessed by ultracentifugation in a TL100 tabletop centrifuge (Beckman) at 50,000g and 20°C for 30 min and analyse of the supernatant and pellet fractions by SDS-PAGE. Following Coomassie staining / destaining the gels were visualized using a ChemiDocTM MP (BioRad). Images were processed and quantified using Image Lab.
# Neuro-2a cells [4] = assay: Internalization (take-up) of αSyn-Alexa488 fibrils by Neuro-2a cells, 96-well plate assay with Trypan blue quenching; format: cell-based, Murine; conditions: Trypan blue quench; for effect of endocytosis inhibitors on αSyn fibrils take-up by Neuro-2a cells: cells exposed 1 hour to chlorpromazine 0–10 μg/ml or EIPA 0–50 μM before αSyn-Alexa488 fibrils 0.5 μM, 4 hours, 5 wells
# Procedure: The uptake of Alexa488-labeled αSyn fibrils (0.5 μM equivalent monomer concentration) pre-incubated or not for 30 min at 37°C in DMEM with the ligands (Hsc70, peptides or Surfen) at different concentrations to Neuro-2A cells was also assessed using a 96-well plate assay. The cells cultured on 96-wells plates were incubated with the fibrils, preincubated or not with the ligands for 30 min at 37°C in DMEM, in 5 independent wells. After 4 hours the media was removed and Hoechst (Sigma-Aldrich) diluted at 0.2 μg/ml in serum-free, phenol red-free DMEM was added for 30 min. The cells were washed twice with serum-free, phenol red-free DMEM and 0.1% Trypan Blue (Sigma-Aldrich) was added to quench the fluorescence of plasma membrane-bound Alexa488-labeled αSyn fibrils. For each wells Alexa488 and Hoechst fluorescences were recorded on a Clariostar microplate reader (BMG LABTECH GmbH, Germany).
# To assess to role of endocytosis in αSyn fibrils internalization, Neuro-2a cells cultured on 96-wells plates were first incubated with increasing concentrations of chlorpromazine or l’5-N-ethyl-isopropyl-amiloride (EIPA). After 1 hour Alexa488-labeled αSyn fibrils (0.5 μM equivalent monomer concentration) was added. The experiment was then performed as above.
# Neuro-2a cells [5] = assay: Binding of αSyn-Alexa488 fibrils to the plasma membrane of Neuro-2a cells; format: cell-based, Murine; conditions: αSyn-Alexa488 fibrils 1 μM pre-incubated with ligand (0–10 μM) in DMEM 30 min 37°C; cells exposed 30 min; % cells with at least 1 fluorescent foci
# Procedure: Alexa488-labeled αSyn fibrils (1 μM equivalent monomer concentration) were first incubated for 30 min at 37°C in DMEM without or with the ligands (Hsc70 or the NKApep peptide) at different concentrations. Neuro-2a cells cultured on ibidi-μ-Dishes (ibidi, Martinsried, Germany) were then incubated for 30 min with this mix. Then, the cells were washed and immediately imaged in serum-free, phenol red-free DMEM on a Zeiss Axio Observer Z1 epifluorescence microscope equipped with an Incubator XLmulti S2 RED LS (Carl Zeiss) and an Orca-R2 camera (Hamamatsu) at a 20x magnification. The percentage of cells with bound Alexa488 foci was estimated by randomly counting at least 500 cells in 10–15 fields and the experiments were reproduced independently 3 times. For each field the number of foci was automatically assessed using the software Fiji and an in-house built plugin.
# fibrillar αSyn [6] = assay: Sedimentation assay of Hsc70 with fibrillar αSyn, SDS-PAGE of pellet and supernatant; format: binding, human; conditions: Hsc70 10 μM, fibrillar αSyn 100 μM, 1h RT, PBS, 50,000g 30 min
# Procedure: For binding assay, αSyn fibrils (100 μM) alone, Hsc70 alone (10 μM) or αSyn fibrils and Hsc70 (100 and 10 μM, respectively) were incubated for 1h at RT in PBS. Samples were spun for 30 min at 50,000g and 20°C in a TL100 tabletop ultracentrifuge (Beckman) and the proportion of Hsc70 present in the pellet vs the supernatant was analysed by SDS-PAGE.
# fibrillar αSyn [7] = conditions: sedimentation assay; read-out: dissociation constant of Hsc70 for fibrillar αSyn; cited from earlier work
# Procedure: We previously brought evidence for Hsc70 interaction with fibrillar αSyn using a sedimentation assay. The dissociation constant we measured was 0.1 μM. Here we confirmed the interaction between Hsc70 and fibrillar αSyn using the same sedimentation assay followed by quantitative analysis of the proteins in the pellet and the supernatant fractions by SDS-PAGE (Fig 1A). […] To determine the affinity of Hsc70 for fibrillar αSyn we incubated preform ...
compound,measurement,setting,value
FTTYSDNQPGV [Hsc-5],Secondary structure composition other,[1],85%
same,Secondary structure composition α-helix,[1],0%
same,Secondary structure composition β-strand,[1],15%
same,Bound peptides,αSyn fibrils [2],2.8 µM
same,Bound peptides (%),αSyn fibrils [2],1.4%
same,binding to αSyn fibrils (in words),αSyn fibrils [2],did not bind
LSKEDIERMVQEAEKY [Hsc-1],Secondary structure composition other,[1],48%
same,Secondary structure composition α-helix,[1],52%
same,Secondary structure composition β-strand,[1],0%
same,Bound peptides,αSyn fibrils [2],1.2 µM
same,Bound peptides (%),αSyn fibrils [2],0.6%
same,binding to αSyn fibrils (in words),αSyn fibrils [2],did not bind
Hsc70-ATTO488: Hsc70 labeled with the aminoreactive fluorescent dye ATTO488,Kd,αSyn fibrils [3],0.49 ± 0.02 µM
LTGIPPAPRGVPQIE [Hsc-7],Secondary structure composition other,[1],73%
same,Secondary structure composition α-helix,[1],10%
same,Secondary structure composition β-strand,[1],17%
same,Bound peptides,αSyn fibrils [2],1.2 µM
same,Bound peptides (%),αSyn fibrils [2],0.6%
same,binding to αSyn fibrils (in words),αSyn fibrils [2],did not bind
GILNVSAVDKSTGKENKITITN [Hsc-10],effect on αSyn assembly into fibrils,monomeric αSyn,accelerated aggregation
same,Secondary structure composition other,[1],41%
same,Secondary structure composition α-helix,[1],46%
same,Secondary structure composition β-strand,[1],13%
same,Bound peptides,αSyn fibrils [2],72 µM
same,Bound peptides (%),αSyn fibrils [2],36%
same,binding to αSyn fibrils (in words),αSyn fibrils [2],did bind
same,Kd,αSyn fibrils [2],> 100 µM
TKQTQTFTTYSDNQPGVLIQVYE [Hsc-6],effect on αSyn assembly into fibrils,monomeric αSyn,significantly slowed down αSyn assembly into fibrils
same,Secondary structure composition other,[1],80%
same,Secondary structure composition α-helix,[1],0%
same,Secondary structure composition β-strand,[1],20%
same,Bound peptides,αSyn fibrils [2],68 µM
same,Bound peptides (%),αSyn fibrils [2],34%
same,binding to αSyn fibrils (in words),αSyn fibrils [2],did bind
same,Kd,αSyn fibrils [2],> 100 µM
"Cc1cc(N)c2cc(NC(=O)Nc3ccc4nc(C)cc(N)c4c3)ccc2n1 [Surfen, reference compound]",Bound peptides,αSyn fibrils [2],176 µM
same,Bound peptides (%),αSyn fibrils [2],88%
same,binding to αSyn fibrils (in words),αSyn fibrils [2],found to bind to αSyn fibrils
same,effect on αSyn fibrils take-up by Neuro-2a cells,"Neuro-2a cells [4]; ligand 2 or 10 μM with Alexa488-labeled αSyn fibrils 1 μM in DMEM 30 min 37°C, cells exposed 2 hours, 3 independent experiments","affected, in a dose-dependent way, their take-up"
CN(C)CCCN1c2ccccc2Sc2ccc(Cl)cc21 [chlorpromazine],effect of endocytosis inhibitors on αSyn fibrils take-up by Neuro-2a cells,Neuro-2a cells [4],inhibited in a dose-dependent manner
GKFELTGIPPAPRGVPQIEVT [Hsc-8],Secondary structure composition other,[1],69%
same,Secondary structure composition α-helix,[1],7%
same,Secondary structure composition β-strand,[1],24%
same,Bound peptides,αSyn fibrils [2],1.6 µM
same,Bound peptides (%),αSyn fibrils [2],0.8%
same,binding to αSyn fibrils (in words),αSyn fibrils [2],did not bind
"CCN(c1nc(N)c(C(=O)N=C(N)N)nc1Cl)C(C)C [EIPA, l’5-N-ethyl-isopropyl-amiloride]",effect of endocytosis inhibitors on αSyn fibrils take-up by Neuro-2a cells,Neuro-2a cells [4],inhibited in a dose-dependent manner
VEDEKLQGKINDED [Hsc-2],Secondary structure composition other,[1],81%
same,Secondary structure composition α-helix,[1],6%
same,Secondary structure composition β-strand,[1],13%
same,Bound peptides,αSyn fibrils [2],1.0 µM
same,Bound peptides (%),αSyn fibrils [2],0.5%
same,binding to αSyn fibrils (in words),αSyn fibrils [2],did not bind
"Hsc70: molecular chaperone Hsc70, recombinant His6-tagged, full-length",effect on αSyn fibrils binding to Neuro-2a cells,Neuro-2a cells [5],affects αSyn fibrils binding to Neuro-2a cells in a dose-dependent manner
same,Hsc70 co-sedimentation with pre-formed αSyn fibrils,fibrillar αSyn [6],pulled into the pellet
same,Kd,fibrillar αSyn [7],0.1 µM
same,effect on αSyn fibrils take-up by Neuro-2a cells,"Neuro-2a cells [4]; αSyn-Alexa488 fibrils 0.5 μM pre-incubated with ligand 0–10 μM in DMEM 30 min 37°C, cells exposed 4 hours, plate reader",significantly affected their take-up
NMKATVEDEKLQGKINDEDKQKIL [Hsc-3],Secondary structure composition other,[1],84%
same,Secondary structure composition α-helix,[1],9%
same,Secondary structure composition β-strand,[1],7%
same,Bound peptides,αSyn fibrils [2],1.2 µM
same,Bound peptides (%),αSyn fibrils [2],0.6%
same,binding to αSyn fibrils (in words),αSyn fibrils [2],did not bind
